What was measured:
[1] = system: HCoV-229E; test: anti-HCoV-229E activity in Huh7 cells by cytopathic effect (CPE) assay; assay type: cell-based, Human coronavirus HCoV-229E; settings: Human coronavirus 229E, Huh-7, HCoV-229E 100 TCID50 in Huh7 cells, about 48 h
[2] = in vitro; settings: human
[3] = system: HCoV-229E; test: anti-HCoV-229E activity in Huh7.5 cells by cytopathic effect (CPE) assay; assay type: cell-based, Human coronavirus HCoV-229E; settings: Human coronavirus 229E, HCoV-229E 100 TCID50 in Huh7.5 cells, about 48 h
[4] = in vitro; settings: human; remark: listed apart in the source

SMILES	EC50 [1]	CC50 [2]	EC50 [3]	CC50 [4]
C#CCCn1c(=O)c2c(nc(NCCO)n2Cc2cccc(OC)c2)n(C)c1=O [IMB-3-45, 1-(but-3-yn-1-yl)-8-((2-hydroxyethyl)amino)-7-(3-methoxybenzyl)-3-methyl-3,7-dihydro-1H-purine-2,6-dione]	66.7 µM	> 200 µM	–	–
Cn1c(=O)c2c(nc(NCCO)n2Cc2cccc([N+](=O)[O-])c2)n(C)c1=O [IMB-79]	17.2 µM	> 200 µM	–	–
Cn1c(=O)c2c(nc(NCCO)n2Cc2ccccc2Br)n(C)c1=O [IMB-2-6, 7-(2-bromobenzyl)-8-((2-hydroxyethyl)amino)-1,3-dimethyl-3,7-dihydro-1H-purine-2,6-dione]	12.8 µM	> 200 µM	–	–
CCn1c(=O)c2c(nc(Br)n2Cc2cccc(OC)c2)n(C)c1=O [IMB-3-30, 8-bromo-1-ethyl-7-(3-methoxybenzyl)-3-methyl-3,7-dihydro-1H-purine-2,6-dione]	4.28 µM	155 µM	–	–
Cn1c(=O)c2c(nc(NCCO)n2Cc2ccc(OC(F)(F)F)cc2)n(C)c1=O [IMB-2-3, 8-((2-hydroxyethyl)amino)-1,3-dimethyl-7-(4-(trifluoromethoxy)benzyl)-3,7-dihydro-1H-purine-2,6-dione]	11.4 µM	> 242 µM	4.79 µM	> 242 µM
COc1cccc(Cn2c(NCc3ccc(F)c(C(F)(F)F)c3)nc3c2c(=O)n(C)c(=O)n3C)c1 [IMB-ZH-11, 8-((4-fluoro-3-(trifluoromethyl)benzyl)amino)-7-(3-methoxybenzyl)-1,3-dimethyl-3,7-dihydro-1H-purine-2,6-dione]	21 µM	> 102 µM	26.6 µM	> 102 µM
COc1ccc(Cn2c(=O)c3c(nc(NCCO)n3Cc3cccc(OC)c3)n(C)c2=O)cc1 [IMB-3-15, 8-((2-hydroxyethyl)amino)-7-(3-methoxybenzyl)-1-(4-methoxybenzyl)-3-methyl-3,7-dihydro-1H-purine-2,6-dione]	17.2 µM	> 200 µM	–	–
COc1cccc(CCn2c(NCCO)nc3c2c(=O)n(C)c(=O)n3C)c1 [IMB-4-13, 8-((2-hydroxyethyl)amino)-7-(3-methoxyphenethyl)-1,3-dimethyl-3,7-dihydro-1H-purine-2,6-dione]	15.4 µM	> 200 µM	–	–
COC(=O)CNc1nc2c(c(=O)n(C)c(=O)n2C)n1Cc1cccc(OC)c1 [IMB-ZHC-2, methyl(7-(3-methoxybenzyl)-1,3-dimethyl-2,6-dioxo-2,3,6,7-tetrahydro-1H-purin-8-yl)glycinate]	28.7 µM	> 129 µM	43.1 µM	> 129 µM
NC(=O)c1ncn([C@@H]2O[C@H](CO)[C@@H](O)[C@H]2O)n1 [RBV, Ribavirin, reference compound]	26.2 µM	–	16.7 µM	–
Cn1c(=O)c2c(nc(NCCO)n2Cc2cccc(Br)c2)n(C)c1=O [IMB-81, 7-(3-bromobenzyl)-8-((2-hydroxyethyl)amino)-1,3-dimethyl-3,7-dihydro-1H-purine-2,6-dione]	2.47 µM	124 µM	–	–
COCCNc1nc2c(c(=O)n(C)c(=O)n2C)n1Cc1cccc(OC)c1 [IMB-ZH-10, 7-(3-methoxybenzyl)-8-((2-methoxyethyl)amino)-1,3-dimethyl-3,7-dihydro-1H-purine-2,6-dione]	8.6 µM	> 134 µM	19 µM	> 134 µM
CCn1c(=O)c2c(nc(NCCO)n2Cc2cccc(OC)c2)n(C)c1=O [IMB-3-46, ethyl-8-((2-hydroxyethyl)amino)-7-(3-methoxybenzyl)-3-methyl-3,7-dihydro-1H-purine-2,6-dione]	155 µM	> 200 µM	–	–
COc1cccc(Cn2c(NCC(N)=O)nc3c2c(=O)n(C)c(=O)n3C)c1 [IMB-ZHC-15, ((7-(3-methoxybenzyl)-1,3-dimethyl-2,6-dioxo-2,3,6,7-tetrahydro-1H-purin-8-yl)amino)acetamide]	44.8 µM	> 134 µM	58.9 µM	> 134 µM
COc1cccc(Cn2c(NCCO)nc3c2c(=O)n(Cc2ccncc2)c(=O)n3C)c1 [IMB-3-16, 8-((2-hydroxyethyl)amino)-7-(3-methoxybenzyl)-3-methyl-1-(pyridin-4-ylmethyl)-3,7-dihydro-1H-purine-2,6-dione]	22.2 µM	115 µM	–	–
Cn1c(=O)c2c(nc(NCCO)n2Cc2ccsc2)n(C)c1=O [IMB-4-12, 8-((2-hydroxyethyl)amino)-1,3-dimethyl-7-(thiophen-3-ylmethyl)-3,7-dihydro-1H-purine-2,6-dione]	3.99 µM	> 200 µM	–	–
C#CCn1c(=O)c2c(nc(NCCO)n2Cc2cccc(OC)c2)n(C)c1=O [IMB-3-72, 8-((2-hydroxyethyl)amino)-7-(3-methoxybenzyl)-3-methyl-1-(prop-2-yn-1-yl)-3,7-dihydro-1H-purine-2,6-dione]	115 µM	> 200 µM	–	–

SMILES	EC50 [1]	CC50 [2]	EC50 [3]	CC50 [4]
Cn1c(=O)c2c(nc(NCCO)n2Cc2ccccc2)n(C)c1=O [IMB-ZHB-13x, 7-benzyl-8-((2-hydroxyethyl)amino)-1,3-dimethyl-3,7-dihydro-1H-purine-2,6-dione]	5.62 µM	> 152 µM	38.5 µM	> 152 µM
Cn1c(=O)c2c(nc(NCCO)n2Cc2cccc(F)c2)n(C)c1=O [IMB-80, 7-(3-fluorobenzyl)-8-((2-hydroxyethyl)amino)-1,3-dimethyl-3,7-dihydro-1H-purine-2,6-dione]	10.7 µM	> 288 µM	14 µM	> 288 µM
COc1cccc(Cn2c(N3CCN(c4ccc(F)cc4)CC3)nc3c2c(=O)n(C)c(=O)n3C)c1 [IMB-2-31, 8-(4-(4-fluorophenyl)piperazin-1-yl)-7-(3-methoxybenzyl)-1,3-dimethyl-3,7-dihydro-1H-purine-2,6-dione]	38.5 µM	> 200 µM	–	–
COc1cccc(Cn2c(N[C@@H](CO)C(C)C)nc3c2c(=O)n(C)c(=O)n3C)c1 [IMB-ZH-12, (R)-8-((1-hydroxy-3-methylbutan-2-yl)amino)-7-(3-methoxybenzyl)-1,3-dimethyl-3,7-dihydro-1H-purine-2,6-dione]	59.9 µM	> 125 µM	59.9 µM	> 125 µM
COc1cccc(Cn2c(NCCO)nc3c2c(=O)n(C)c(=O)n3Cc2ccccc2)c1 [IMB-3-81, benzyl-8-((2-hydroxyethyl)amino)-7-(3-methoxybenzyl)-1-methyl-3,7-dihydro-1H-purine-2,6-dione]	96.2 µM	> 200 µM	–	–
Cn1c(=O)c2c(nc(NCCO)n2Cc2ccc(F)cc2F)n(C)c1=O [IMB-83, 7-(2,4-difluorobenzyl)-8-((2-hydroxyethyl)amino)-1,3-dimethyl-3,7-dihydro-1H-purine-2,6-dione]	3.15 µM	> 200 µM	–	–
COC(=O)c1ccc2c(ccn2-c2nc3c(c(=O)n(C)c(=O)n3C)n2Cc2cccc(OC)c2)c1 [IMB-2-32, Methyl-1-(7-(3-methoxybenzyl)-1,3-dimethyl-2,6-dioxo-2,3,6,7-tetrahydro-1H-purin-8-yl)-1H-indole-5-carboxylate]	5.75 µM	51.7 µM	–	–
C=CCn1c(=O)c2c(nc(NCCO)n2Cc2cccc(OC)c2)n(C)c1=O [IMB-3-71, allyl-8-((2-hydroxyethyl)amino)-7-(3-methoxybenzyl)-3-methyl-3,7-dihydro-1H-purine-2,6-dione]	38.5 µM	115 µM	–	–
COc1cccc(Cn2c(NCCO)nc3c2c(=O)n(CCCNC(=O)OC(C)(C)C)c(=O)n3C)c1 [IMB-3-58, tert-butyl(3-(8-((2-hydroxyethyl)amino)-7-(3-methoxybenzyl)-3-methyl-2,6-dioxo-2,3,6,7-tetrahydro-1H-purin-1-yl)propyl)carbamate]	66.7 µM	> 200 µM	–	–
COc1cccc(Cn2c(NCCO)nc3c2c(=O)n(CC2CCOCC2)c(=O)n3C)c1 [IMB-3-6, 8-((2-hydroxyethyl)amino)-7-(3-methoxybenzyl)-3-methyl-1-((tetrahydro-2H-pyran-4-yl)methyl)-3,7-dihydro-1H-purine-2,6-dione]	–	> 200 µM	–	–
CCCn1c(=O)c2c(nc(NCCO)n2Cc2cccc(OC)c2)n(C)c1=O [IMB-3-47, 8-((2-hydroxyethyl)amino)-7-(3-methoxybenzyl)-3-methyl-1-propyl-3,7-dihydro-1H-purine-2,6-dione]	85.9 µM	> 200 µM	–	–
Cn1c(=O)c2c(nc(NCCO)n2Cc2ccc(F)cc2)n(C)c1=O [IMB-2-2, 7-(4-fluorobenzyl)-8-((2-hydroxyethyl)amino)-1,3-dimethyl-3,7-dihydro-1H-purine-2,6-dione]	3.15 µM	> 200 µM	–	–
COc1cccc(Cn2c(NCCO)nc3c2c(=O)n(CCNC(=O)OC(C)(C)C)c(=O)n3C)c1 [IMB-3-57, tert-butyl(2-(8-((2-hydroxyethyl)amino)-7-(3-methoxybenzyl)-3-methyl-2,6-dioxo-2,3,6,7-tetrahydro-1H-purin-1-yl)ethyl)carbamate]	66.7 µM	> 200 µM	–	–
CCOC(=O)c1cccc(Cn2c(NCCO)nc3c2c(=O)n(C)c(=O)n3C)c1 [IMB-4-6, ethyl3-((8-((2-hydroxyethyl)amino)-1,3-dimethyl-2,6-dioxo-1,2,3,6-tetrahydro-7H-purin-7-yl)methyl)benzoate]	2.47 µM	200 µM	–	–
COc1cccc(Cn2c(-n3ccnc3)nc3c2c(=O)n(C)c(=O)n3C)c1 [IMB-2-26, 8-(1H-imidazol-1-yl)-7-(3-methoxybenzyl)-1,3-dimethyl-3,7-dihydro-1H-purine-2,6-dione]	38.5 µM	> 200 µM	–	–
COc1cccc(Cn2c(NCCO)nc3c2c(=O)n(Cc2ccc(F)cc2)c(=O)n3C)c1 [IMB-3-13, 1-(4-fluorobenzyl)-8-((2-hydroxyethyl)amino)-7-(3-methoxybenzyl)-3-methyl-3,7-dihydro-1H-purine-2,6-dione]	17.2 µM	46.2 µM	–	–
